From ChEMBL document CHEMBL1687692, “Exploring α7-Nicotinic Receptor Ligand Diversity by Scaffold Enumeration from the Chemical Universe Database GDB” (ACS Med Chem Lett, 2010)
pEC50, pIC50, pKi: −log10 of the molar value. One block for each compound: values may come before it.

Legend:
[1] = molecular target: T1, Neuronal acetylcholine receptor subunit alpha-7 (Homo sapiens, UniProt P36544); test: Competitive antagonist activity at human alpha7 nAChR expressed in Xenopus oocyte assessed as inhibition of ACh-induced current by voltage clamp method; format: functional
[2] = molecular target: T1, Neuronal acetylcholine receptor subunit alpha-7; test: Antagonist activity at human alpha7 nAChR expressed in Xenopus oocyte assessed as inhibition of ACh-induced current by voltage clamp method; format: functional
[3] = molecular target: T1, Neuronal acetylcholine receptor subunit alpha-7; test: Binding affinity to human alpha7 nAChR
[4] = molecular target: T1, Neuronal acetylcholine receptor subunit alpha-7; test: Partial agonist activity at human alpha7 nAChR expressed in Xenopus oocyte […] current by voltage clamp method; format: functional
[5] = molecular target: T1, Neuronal acetylcholine receptor subunit alpha-7; test: Non competitive antagonist activity at human alpha7 nAChR expressed in Xenopus oocyte assessed as inhibition of ACh-induced current by voltage clamp method; format: functional

T1 sequence (P36544 whole entry): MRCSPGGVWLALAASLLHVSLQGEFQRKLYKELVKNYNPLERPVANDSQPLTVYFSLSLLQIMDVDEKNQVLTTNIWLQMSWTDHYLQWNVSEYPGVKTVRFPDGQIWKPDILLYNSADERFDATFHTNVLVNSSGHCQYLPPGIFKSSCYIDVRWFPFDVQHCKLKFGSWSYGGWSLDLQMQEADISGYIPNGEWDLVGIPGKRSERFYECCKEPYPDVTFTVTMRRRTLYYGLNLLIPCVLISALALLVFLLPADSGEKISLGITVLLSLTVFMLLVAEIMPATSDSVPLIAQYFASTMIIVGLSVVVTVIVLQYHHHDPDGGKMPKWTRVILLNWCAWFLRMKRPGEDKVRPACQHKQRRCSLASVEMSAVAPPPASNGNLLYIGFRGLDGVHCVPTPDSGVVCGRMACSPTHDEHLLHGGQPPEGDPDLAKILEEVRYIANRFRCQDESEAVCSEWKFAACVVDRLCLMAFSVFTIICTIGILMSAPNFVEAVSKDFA

SMILES: O=C(Oc1ccc(Br)cc1)N1CCCN2CCC[C@H]2C1
pIC50 [1]: 5.25

pIC50 [2]: 5.15
SMILES: CC(C)N1CCCCN(C(=O)c2ccc(Cl)cc2)CC1

pIC50 [2]: 5.14
SMILES: O=C(NCC12CCCN1CCC2)c1ccc(Cl)cc1

SMILES: O=C(Oc1ccc(Br)cc1)N1CCN2CCC1CC2 [SSR180711]
pKi [3]: 7.85
pEC50 [4]: 5.36

pIC50 [5]: 5.21
SMILES: C[C@H]1CN2CCCC[C@@H]2CN1C(=O)c1ccc2c(c1)OCCO2
